Results published in patent US9199959B2, “HIV replication inhibitor” (Shionogi & Co., Ltd., priority 2011, dated 2015).

Tests used:
HIV (HTLV-III B strain) = assay: HIV replication inhibition assay (MTT, MT-4 cells); format: cell-based; conditions: Human immunodeficiency virus 1, MT4, 96 h, four days culture, concentration at which cell cytotoxicity by virus is inhibited 50%
Procedure: HIV (HTLV-III B strain) persistent infected human T cell strain Molt-4 clone 8 was cultured in 10% Fetal Bovine Serum-containing RPMI-1640 medium and the supernatant was filtrated, then the virus titer was measured and the solution was stored at −80° C. Each anti-human immunodeficiency virus active substance was diluted with the above cultured medium to the designated concentration, which was dispensed into 96 well micro plate by 50 μL. Next, a MT-4 cell suspended liquid was dispensed by 100 μL (2.5×10^4 cells), then the above HIV-containing supernatant diluted with the above cultured medium was added thereto by 50 μL (60 pfu (plaque forming unit)).
The obtained mixture was cultured at 37° C. in CO2 incubator for four days, then 3-(4,5-dimehylthiazole-2-yl)-2,5-diphenyltetrazolynium bromide (MTT) 5 mg/mL in PBS was added to each well by 30 μL, followed by 1 hr-cultivation. In this step, as formazan was precipitated by reduction of MTT in living cells, the cell supernatant was removed from all well by 150 μL, then a 150 μL of solution (10% Triton X-100 and […]) was added thereto, followed by shaking with a plate mixer, to elute formazan. The formazan was measured with a microreader at OD: 560 nm and 690 nm (wavelength) and the result was compared with the reference. EC50 means the compound concentration at which cell cytotoxicity by virus is inhibited 50%.

[1] = test system: Salmonella typhimurium TA98 strain, TA100 strain; format: cell-based; conditions: Salmonella typhimurium TA98, TA100, non-metabolism and metabolism activating condition
Procedure: The mutagenicity of the compound of the present invention was assayed.
20 μL of freezing-stored rat typhoid bacillus (Salmonella typhimurium TA98 strain, TA100 strain) was inoculated on 10 mL of a liquid nutrient medium (2.5% Oxoid nutrient broth No. 2), and this was cultured before shaking at 37° C. for 10 hours. 9 mL of a bacterial solution of the TA98 strain was centrifuged (2000×g, 10 minutes) to remove a culturing solution. The bacteria was suspended in F buffer (K2HPO4: 3.5 g/L, KH2PO4: 1 g/L, (NH4)2SO4: 1 g/L, trisodium citrate dehydrate: 0.25 g/L, MgSO4.7H2O: 0.1 g/L), and the suspension was added to 110 mL of an Exposure medium (Micro F buffer containing Biotin: 8 μg/mL, histidine: 0.2 μg/mL, glucose: 8 mg/mL). The TA100 strain was added to 120 mL of the Exposure medium per 3.16 mL of the bacterial solution to prepare a test bacterial solution. […] of a test substance DMSO solution (several stage dilution from maximum dose 50 mg/mL at 2- to 3-fold ratio), DMSO as a negative control, 50 μg/mL of 4-nitroquinoline-1-oxide DMSO solution for the TA98 strain, 0.25 μg/mL of 2-(2-furyl)-3-(5-nitro-2-furyl)acrylamide DMSO solution for the TA100 strain each under the non-metabolism activating condition, 40 μg/mL of 2-aminoanthracene DMSO solution for the TA98 strain, 20 μg/mL of 2-aminoanthracene DMSO solution for the TA100 strain each under the metabolism activating condition all as a positive control, and 588 μL of the test bacterial solution (a mixed solution of 498 μL of the test bacterial solution and 90 μL of S9 mix under the metabolism activating condition) were mixed, and this was shaking-cultured at 37° C. for 90 minutes. […] Since a well containing a bacterium which has obtained the proliferation ability by mutation of an amino acid (histidine) synthesizing enzyme gene turns from purple to yellow due to a pH change, the bacterium proliferation well which has turned to yellow in 48 wells per dose is counted, and was assessed by comparing with a negative control group. […]

Row | SMILES | EC50 (HIV (HTLV-III B strain)) | mutagenicity [1]
1 | CCNC(=O)Nc1c(C)c(C(OC(C)(C)C)C(=O)O)c(-c2ccc(C)c(C)c2)c(C)c1-c1ccc(C)c(C)c1 (stereo not shown) [Compound I-11] | 21 nM | negative
2 | Cc1ccc(-c2c(C)c(-c3ccc(C)c(C)c3)c(C(OC(C)(C)C)C(=O)O)c(C)c2NS(C)(=O)=O)cc1C (stereo not shown) [Compound I-12] | 6.4 nM | negative
